Results taken from patent US20060069132A1, “Azolecarboxamide herbicides” (priority 2004, published 2006).

Assays:
ducksalad [1] = test: Test C flooded paddy test; type: in vivo, Heteranthera limosa; conditions: for Plant response rating, Ducksalad: visual rating after 12 to 14 days
barnyardgrass = test: Test B flooded paddy test; type: in vivo, Echinochloa crus-galli; conditions: 1000 g ai/ha, scale 0 to 100 (0 no effect, 100 complete control); for Barnyardgrass plant response rating: visual rating, 13 to 15 days; for pest or weed control at 1000 g/ha: Echinochloa crus-galli, 336 h, read-out: Barnyardgrass plant response rating
Procedure, shortened: (§1)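 Read-out: visual comparison with controls, scored 0 to 100, where 100 means complete control and 0 no effect. Formulated chemicals were applied postemergence to plants 2–18 cm tall (1- to 4-leaf), or to flooded-paddy plants at the 2-leaf stage, then held 13 to 15 days under glass.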

[2] = test system: smallflower umbrella sedge; test: Test C flooded paddy test; type: in vivo, Cyperus difformis; conditions: for Plant response rating, Sedge, Umbrella: visual rating after 12 to 14 days
rice = test: Test B flooded paddy test; type: in vivo, Oryza sativa; conditions: 1000 g ai/ha, scale 0 to 100 (0 no effect, 100 complete control); for Rice plant response rating: visual rating, 13 to 15 days; for plant injury at 1000 g/ha: Oryza sativa, 336 h, read-out: Rice plant response rating
Procedure, shortened: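 After treating 2-leaf paddy plants or 2–18 cm postemergence plants (1 to 4 leaves) with formulated chemical, researchers kept them in a greenhouse for 13–15 days. Effects were judged visually versus controls: 0 indicates none, 100 total control.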

ducksalad [3] = test: Test B flooded paddy test; type: in vivo, Heteranthera limosa; conditions: 1000 g ai/ha, scale 0 to 100 (0 no effect, 100 complete control); for Ducksalad plant response rating: visual rating, 13 to 15 days; for pest or weed control at 1000 g/ha: Heteranthera limosa, 336 h, read-out: Ducksalad plant response rating
Procedure, shortened: as §1

[4] = 62 g ai/ha, scale 0 to 100 (0 no effect, 100 complete control)
[5] = 125 g ai/ha, scale of 0 to 100, 0 is no effect, 100 is complete control
[6] = 250 g ai/ha, scale 0 to 100 (0 no effect, 100 complete control)
[7] = 500 g ai/ha, scale 0 to 100 (0 no effect, 100 complete control)
[8] = 250 g ai/ha, scale of 0 to 100, 0 is no effect, 100 is complete control
[9] = 125 g ai/ha, scale 0 to 100 (0 no effect, 100 complete control)

Row | Compound | Ducksalad plant response rating (ducksalad [1]; [4]) | Ducksalad plant response rating (ducksalad [1]; [5]) | Plant response rating, Ducksalad (ducksalad [1]; [6]) | Plant response rating, Ducksalad (ducksalad [1]; [7]) | Barnyardgrass plant response rating (barnyardgrass) | Sedge, Umbrella plant response rating [2, 4] | Sedge, Umbrella plant response rating [2, 5] | Plant response rating, Sedge, Umbrella [2, 6] | Plant response rating, Sedge, Umbrella [2, 7] | Rice plant response rating (rice) | Ducksalad plant response rating (ducksalad [3]) | Ducksalad plant response rating (ducksalad [1]; [8]) | Sedge, Umbrella plant response rating [2, 8] | Ducksalad plant response rating (ducksalad [1]; [9]) | Sedge, Umbrella plant response rating [2, 9] | pest or weed control at 1000 g/ha (barnyardgrass) | plant injury at 1000 g/ha (rice) | pest or weed control at 1000 g/ha (ducksalad [3])
1 | CCn1nc(C(C)(C)C)cc1C(=O)Nc1cccc(C(=O)NCCF)c1 [Compound 45] | 0 | 0 | 60 | 60 | 80 | 55 | 60 | 80 | 80 | 70 | 80 | – | – | – | – | – | – | –
2 | CCn1nc(C(C)(C)C)cc1C(=O)Nc1cccc(C(=O)NC(C)C)c1 [Compound 51] | 0 | 55 | – | 85 | 90 | 45 | 50 | – | 80 | 70 | 80 | 75 | 65 | – | – | – | – | –
3 | CCn1nc(C(C)(C)C)cc1C(=O)Nc1cccc(C(C)=O)c1 [Compound 122] | 50 | 80 | – | 80 | 60 | 50 | 60 | – | 80 | 70 | 80 | 80 | 70 | – | – | – | – | –
4 | CCOc1cccc(NC(=O)c2cc(C(C)(C)C)nn2CC)c1 [Compound 136] | 0 | – | – | 90 | 60 | 65 | – | – | 85 | 30 | 90 | 45 | 85 | 0 | 80 | – | – | –
5 | CCn1nc(C(C)(C)C)cc1C(=O)Nc1cccc(OCCCF)c1 [Compound 138] | 0 | – | – | 70 | 10 | 0 | – | – | 95 | 50 | 80 | 55 | 75 | 20 | 40 | – | – | –
6 | CCn1nc(C(C)(C)C)cc1C(=O)Nc1cc(C(=O)NCC2CC2)ccn1 [Compound 155] | 45 | – | – | 90 | 70 | 0 | – | – | 75 | 20 | 100 | 85 | 65 | 80 | 30 | – | – | –
7 | CCN(CC)C(=O)c1cncc(NC(=O)c2cc(C(C)(C)C)nn2CC)c1 [Compound 261, 5-[[[3-(1,1-dimethylethyl)-1-ethyl-1H-pyrazol-5-yl]carbonyl]amino]-N,N-diethyl-3-pyridinecarboxamide] | – | – | – | – | – | – | – | – | – | – | – | – | – | – | – | 0% | 60% | 80%
8 | CCOC(=O)c1cccc(NC(=O)c2nn(C(C)(C)C)nc2CC)c1 [Compound 360, ethyl 3-[[[2-(1,1-dimethylethyl)-5-ethyl-2H-1,2,3-triazol-4-yl]carbonyl]amino]benzoate] | – | – | – | – | – | – | – | – | – | – | – | – | – | – | – | 40% | 50% | 70%
